Assay results taken from article PMC4528135, “Kinetic Investigations of the Role of Factor Inhibiting Hypoxia-inducible Factor (FIH) as an Oxygen Sensor” (The Journal of Biological Chemistry, 2015).

Legend:
FIH = biological target: T1, FIH (Homo sapiens, UniProt Q9NWT6); test: Time course of FIH-catalyzed peptide hydroxylation; format: biochemical; conditions: 5 μM FIH, 500 μM peptide, atmospheric O2; for substrate hydroxylation (time course): 50 μM Fe(II), 500 μM 2OG, 1 mM L-ascorbate, 50 mM HEPES pH 7.5, 37 °C, MALDI-TOF-MS, triplicate assays
T1 construct: Full-length recombinant FIH, two- and three-consensus ankyrin repeats (2CA and 3CA) were produced as described; His6 (cleaved yes); made in house; host or cells: Escherichia coli BL21(DE3)
Method: Enzymatic assays were conducted as described ([46], [47]). Unless otherwise stated, the assay mixture typically contained 5 μM FIH, 500 μM substrate, 500 μM 2OG, 1 mM L-ascorbate, and 50 μM Fe(NH4)2(SO4)2 or 4 μM PHD2, 100 μM substrate, 300 μM 2OG, 4 mM L-ascorbate, and 50 μM Fe(NH4)2(SO4)2. For HIF-1α CODD19-mer, the background levels of methionine oxidation resulting from assay conditions were subtracted based on non-enzymatic controls ([48]).
FIGURE 3. PHD2- and FIH-catalyzed hydroxylation of HIF-1/2α peptide substrates. A, time course of HIF-1/2α CODD19-mer peptide hydroxylation; B, time course of HIF-1/2α NODD19-mer peptide hydroxylation. Conditions were as follows: 4 μM PHD2, 100 μM peptide, 50 μM Fe(II), 300 μM 2OG, 1 mM L-ascorbate in HEPES 50 mM (pH 7.5) were incubated at 37 °C at atmospheric O2. C, time course of HIF-1α CAD 19- and 35-mer peptide hydroxylation. D, time course of HIF-2α CAD 19- and 35-mer peptide hydroxylation. Conditions were as follows: 5 μM FIH, 500 μM peptide, 50 μM Fe(II), 500 μM 2OG, 1 mM L-ascorbate in HEPES 50 mM (pH 7.5) were incubated at 37 °C at atmospheric O2. The different hydroxylation levels were analyzed by MALDI-TOF-MS. Error bars, S.D. of triplicate assays.

PHD2 = biological target: T2, PHD2 (Homo sapiens, UniProt Q9GZT9); test: O2 dependence of PHD2-catalyzed hydroxylation (sealed vials, N2/O2 mixes); format: biochemical; conditions: PHD2 with the named 19-mer substrate; 4 μM PHD2, 50 μM Fe(II), 4 mM L-ascorbate, 50 mM HEPES pH 7.5, 37 °C, O2 levels set by mass flow controllers; triplicate assays; read-out: Km^app(O2)
T2 construct: The catalytic domain of PHD2 (residues 181–426) was purified as described; made in house
Method: The O2 dependence of FIH-catalyzed reactions was determined by conducting enzymatic assays in an “In vivo 500 Hypoxia Workstation” (Ruskinn) using buffers pre-equilibrated under different pO2 values for 24 h. The O2 dependence of PHD2-catalyzed reactions was determined by conducting enzymatic assays in sealed glass vials with variable N2/O2 contents ([42]). Reactions were stopped by spotting samples onto a matrix-assisted laser desorption/ionization-time of flight mass spectrometry (MALDI-TOF-MS) target plate and immediately mixing with α-cyano-4-hydroxycinnamic acid matrix. Hydroxylation levels were assessed by MALDI-TOF-MS as described ([46]).
FIGURE 4. O2 dependence of FIH- and PHD2-catalyzed hydroxylation of HIF-1/2α. A, O2 dependence of PHD2-catalyzed hydroxylation of HIF-1/2α CODD/NODD 19-mer peptides. 4 μM PHD2, peptide (varied), 50 μM Fe(II), 2OG (varied), 4 mM L-ascorbate in HEPES 50 mM (pH 7.5) were incubated at 37 °C. The different O2 levels were maintained using mass flow controllers ([42]), and the hydroxylation levels were analyzed by MALDI-TOF-MS. B, O2 dependence of FIH-catalyzed hydroxylation of CAD HIF-1/2α 35-mer peptides. Conditions were as follows. 5 μM FIH, 500 μM peptide, 50 μM Fe(II), 1 mM 2OG, 1 mM L-ascorbate in HEPES 50 mM (pH 7.5) were incubated at 37 °C in a hypoxia work station under different pO2. […] Error bars, S.D. of triplicate assays.

[1] = CD spectroscopy and thermal denaturation of 2CA and 3CA; format: physicochemical; conditions: for secondary structure in solution by circular dichroism: 0.2 mg/ml protein in 10 mM sodium phosphate buffer pH 8.0 (Fig. 7), thermal denaturation 10 to 90 °C
Method: CD spectra were recorded using a Chirascan CD/fluorimeter (Applied Photophysics) spectrometer. Measurements were carried out at 20 °C in a 0.1 cm path length quartz cuvette, with protein concentration of 0.125 mg/ml in 5 mM sodium phosphate buffer (pH 8.0). Spectra were recorded in the wavelength range of 260–190 nm at 0.5-nm intervals, and each spectrum represents an average of three scans. Spectra were baseline-corrected by subtraction of the buffer spectrum. Data were expressed as the mean residue ellipticity ([θ], degrees·cm^2·dmol^−1). Thermal denaturation experiments were performed under the same conditions. The ellipticity at 220 nm (θ220) was monitored from 10 to 90 °C.
FIGURE 7. CD spectroscopic comparison of 2CA and 3CA secondary structure. Thermal denaturation experiments of 2CA and 3CA are shown. Conditions were as follows. 0.2 mg/ml protein in 10 mM sodium phosphate buffer (pH 8.0) was studied at 222 nm for thermal denaturation experiments between 10 and 90 °C. A, melting curves of 2CA. B, spectra of 2CA between 260 and 190 nm at 10 °C, after heating to 90 °C and after cooling again to 10 °C. C, melting curves of 3CA. D, spectra of 3CA between 260 and 190 nm at 10 °C, after heating to 90 °C, where the α-helical structure is predominantly lost, and after cooling again to 10 °C, where the structure is largely regained.

T1 sequence (Q9NWT6 whole entry): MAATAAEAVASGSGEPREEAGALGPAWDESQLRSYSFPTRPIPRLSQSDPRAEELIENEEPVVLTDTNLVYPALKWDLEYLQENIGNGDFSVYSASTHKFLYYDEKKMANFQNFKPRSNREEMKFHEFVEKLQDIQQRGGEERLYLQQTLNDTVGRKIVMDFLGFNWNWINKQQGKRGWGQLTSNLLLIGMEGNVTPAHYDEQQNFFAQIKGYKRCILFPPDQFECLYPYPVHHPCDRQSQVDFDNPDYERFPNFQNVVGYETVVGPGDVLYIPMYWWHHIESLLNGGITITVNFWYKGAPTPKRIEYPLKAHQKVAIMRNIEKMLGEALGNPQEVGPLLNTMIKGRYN
T2 sequence (Q9GZT9 181-426): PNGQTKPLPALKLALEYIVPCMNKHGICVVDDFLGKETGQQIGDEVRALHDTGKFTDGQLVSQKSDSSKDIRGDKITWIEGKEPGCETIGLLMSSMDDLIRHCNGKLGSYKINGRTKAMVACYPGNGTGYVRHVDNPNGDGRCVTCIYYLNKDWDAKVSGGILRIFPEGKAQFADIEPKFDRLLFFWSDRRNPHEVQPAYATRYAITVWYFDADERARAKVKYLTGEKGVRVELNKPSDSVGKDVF

Sequence | substrate hydroxylation (time course) (FIH) | Km (PHD2) [µM] | secondary structure in solution by circular dichroism [1] | further results
DESGLPQLTSYDCEVNAPIQGSRNLLQGEELLRAL [HIF-1α CAD35-mer] | nearly complete substrate hydroxylation | – | – | –
EELAQLAPTPGDAIISLDF [HIF-2α NODD, 19-mer fragment (398–416) of the HIF-2α N-terminal oxygen-dependent degradation domain, PHD2 substrate] | – | 410 ± 80 | – | –
ELDLETLAPYIPMDGEDFQ [HIF-2α CODD, 19-mer fragment (523–541) of the HIF-2α C-terminal oxygen-dependent degradation domain, PHD2 substrate] | – | > 450 | – | –
ESYLLPELTRYDCEVNVPVLGSSTLLQGGDLLRAL [HIF-2α CAD35-mer] | < 30% | – | – | increase in activity on increasing peptide length (19-mer to 35-mer) (FIH; standard conditions, 37 °C): 10%
GSHMGSDLGKKLLEAARAGQDDEVRILMANGADVAAKDKNGSTPLHLAARNGHLEVVKLLLEAGADVNAQDKFGKTAFDISIDNGNEDLAEILQ [3CA, recombinant three-consensus ankyrin repeat protein produced in Escherichia coli] | – | – | folded in solution | –
SDKNGSTPLHLAARNGHLEVVKLLLEHGADVNAQDKWGKTAFDISIDNGNEDLAEILQ [2CA, recombinant two-consensus ankyrin repeat protein produced in Escherichia coli] | – | – | does not possess significant secondary structure | temperature above which the protein is unfolded (CD) ([1]; thermal denaturation between 10 and 90 °C, sodium phosphate buffer pH 8.0): > 10 °C
